One series is described as follows: cells. On the procedure: (§1) Cell death was measured using resazurin, with 0.1% (v/v) Triton X‐100 as a control for 100% cell death. Data points are expressed as mean ± SD for at least two biological replicates. Dose response curves were fitted using [inhibitor] versus response with variable slope, Graphpad Prism v10. […] RBC lysis was determined by measuring released hemoglobin, with 0.1% (v/v) Triton X‐100 as a control for 100% cell lysis. Melittin was included as a membranolytic control. Data points are expressed as mean ± SD for two technical replicates. Dose response curves were fitted using [inhibitor] versus response with variable slope, Graphpad Prism v10. […] CC50 values are expressed as mean (SEM).
(§2) Cell death was measured using resazurin, with 0.1% (v/v) Triton X-100 as a control for 100% cell death. Data points are expressed as mean ± SD for at least two biological replicates. CC50 values are expressed as mean (SEM). Note: CPT-dipeptide-PDIP was not included in this study. c[A]PDIP is a desulfurized variant of cPDIP 2 (see Table S1) to prevent the presence of free thiol during assays. […]
(§3) HaCaT cells were grown in DMEM medium and HT144 cells were grown in RPMI medium supplemented with 2 mM L-glutamine and 10 mM sodium pyruvate. Media were supplemented with 10% (v/v) fetal bovine serum, 100 units/mL of penicillin and […] of streptomycin. Flasks of cultured cells were maintained in a humidified incubator (37 °C, 5% CO2) and passaged every 2–3 days to maintain cultures between 20–90% confluence. Cell line identity was verified by comparing […]
(§4) STR profiles of the cell lines against database entries from the DSMZ-German collection of microorganisms and cell cultures, GmBH https://celldive.dsmz.de/str/browse.
(§5) Toxicity to the HT144 and HaCaT cell lines was tested following peptide treatment by measuring the metabolism of resazurin into fluorescent resorufin. The assays were performed with 5000 cells/well (96-well plate) in serum free media. Cells were incubated with serially diluted peptides, PDCs or […]

In another series the test system is HT144 (melanoma) cells. Nature of the series: cells. The conditions noted are these: 72 h, concentration range 16 nM—2 μM. The method, then: as §1, §2, §3, §4, §5
A short description of series [1]: Cytotoxicity (resazurin) against cultured HaCaT noncancerous cells. The method, then: as §1, with “(SEM). […]” for “(SEM).”
as §3, §4
(§6) Toxicity to the HT144 and HaCaT cell lines was tested following peptide treatment by measuring the metabolism of resazurin into fluorescent resorufin. The assays were performed with 5000 cells/well (96-well plate) in serum free media. Cells were incubated with serially diluted peptides, PDCs or drugs for 72 h or 24 h (37 °C, 5% CO2). PBS and 0.1% (v/v) Triton X-100 were included as controls for 0% and 100% toxicity. Resazurin was added at 0.02% (w/v) final concentration 2 h prior to the assay end point. Fluorescence (λex = 560 nm, λem = 585 nm) was measured using a Tecan infinite M1000Pro multiplate reader. Percentage cytotoxicity was calculated relative to 0% and 100% controls.
(§7) Dose-response curves were fitted and CC50 values were determined using [inhibitor] vs response with four parameters with the top constrained to 100% (GraphPad Prism version 10.0.2). Data was collected as three biological replicates, with experiments conducted on different days.
(§8) Red blood cell (RBC) lysis
(§9) Human RBCs and serum were obtained from healthy volunteers via the Red Cross Lifeblood, Brisbane, Australia. RBCs were washed three times with PBS and stored in culture medium (RPMI

A short description of series [2]: Parallel artificial membrane permeability assay (PAMPA). The series is classed as in vitro ADME. The conditions noted are these: for Papp at 4 h, 4 μM: PAMPA. On the procedure: FIGURE 4 (A) Membrane permeability and cellular uptake of PDCs, scaffold peptides, and CPT. Compounds were added to PAMPA wells (4 μM) and incubated for 4 h. Supernatant from apical and basolateral sides of the membrane were collected and analyzed using LC–MS. The amount in the combined soluble fractions was compared to the starting amount to determine % recovery, and the apparent permeability (Papp) was calculated as before (Sevin et al. [2013]). Data is expressed as mean ± SD from a single experiment with three technical replicates. (B) Internalization/cell membrane association of PDCs 12–14 and PDIP with HT144 cells. Cells were treated with PDIP or PDCs (4 μM) for 1 h, washed to remove extracellular compound, then extracted with 75% (v/v) MeCN in mQH2O (containing 1.75% (v/v) TFA), to recover soluble peptide or PDC from precipitated cell proteins. The relative amount of internalized peptide or PDC was determined by integrating area under the curve (AUC) for the [M + 6H]^6+ m/z peak (for the intact mass) using time of flight–mass spectrometry (see Figure S2). […] Data is expressed as mean ± SD from a single experiment with three technical replicates for each treatment and control and was analyzed with ANOVA (Tukey multiple comparisons; **p < 0.01, *p < 0.05). (C) Detection of intracellular CPT following 6 h treatment of HT144 cells with CPT and PDCs 12 and 14. […] Data is expressed as mean ± SD from a single experiment with three technical replicates for each treatment and was analyzed with ANOVA (Fisher multiple paired comparisons; **p < 0.01, *p < 0.05). TEXT PRINTED IN THE PICTURE: (A) PDIP: % recovered (soluble fractions): 94 | (A) 12: % recovered (soluble fractions): 58 | (A) 14: % recovered (soluble fractions): 33 | (A) 15: % recovered (soluble fractions): 40 | (A) c[A] PDIP: % recovered (soluble fractions): 34 | (A) CPT: % recovered (soluble fractions): 92 […]
For the first assay, the PDCs (12–15), scaffold peptides and CPT (4 μM) were added to the apical side of PAMPA monolayers and incubated for 4 h. […] PDIP, CPT, and PDCs 12 and 14 had high permeability (Papp ≥ 2 × 10^−6 cm/s), highlighting that these PDCs maintain membrane permeability with the CPT cargo attached. […] Reliable permeability data were not obtained for PDC 13 because of poor recovery of the PDC from soluble fractions, and degradation during the 4 h PAMPA experiment. […] Instability of the carbonate linkage within CPT conjugates containing a dipeptide linker has been previously reported (Walker et al. [2002]), highlighting the potential incompatibility of this drug–linker combination for CPT PDCs. Considering the observed degradation of 13 in the cell‐free assay, it is also possible that extracellular degradation occurred during the cytotoxicity assays.
Parallel artificial membrane permeability assay (PAMPA)
PAMPA was performed according to the manufacturer instructions for the BD Gentest pre-coated PAMPA plate system (BD Biosciences), as previously described.16 Briefly, peptides and PDCs (4 μM in PBS) were added to the apical side of PAMPA wells and incubated for 4 h at 37 °C, 5% CO2 with 95% humidity. Soluble fractions were recovered from the apical and basolateral sides, and compound concentration was quantified using a Shimadzu LCMS-2020 instrument with a Phenomenex 5 µm C18 / 300 Å / 150 x 2 mm LC column. Data was collected from three technical replicates for each compound. The % recovery was determined from (combined from apical and basolateral fractions) relative to the starting concentration:
Recovery rate : R (%) = (C஺ ×V஺ +C஻ ×V஻ )× 100 where CA and CB are the apical and basolateral concentrations (µM), VA and VB are the apical and basolateral volumes (mL), and C0 is the initial concentration (µM).
The apparent permeability coefficient (Papp) was calculated using the following equations17 and where A is the membrane surface area (cm2): […]

Series [3] relates to HaCaT (noncancerous) cells. Put plainly: Cytotoxicity (resazurin) against cultured HaCaT noncancerous cells. The conditions noted are these: read-out: CC50 HaCaT; 72 h incubation, resazurin; mean (SEM). On the procedure: as §1, with “(SEM). […]” for “(SEM).”
as §3, §4, §6, §7, §8, §9

The results in this text go back to PMC11747586, “Synthesis and Investigation of Peptide–Drug Conjugates Comprising Camptothecin and a Human Protein‐Derived Cell‐Penetrating Peptide” (Chemical Biology & Drug Design, 2025).

Where two headings read alike, the source gives them in different places. Residues, ends and D or L forms follow the SMILES beside them. Some results are limits rather than exact numbers.

With `CC[C@H](C)[C@@H]1NC(=O)[C@H](CCCCN)NC(=O)[C@H](CCCCN)NC(=O)[C@H](Cc2ccc(O)cc2)NC(=O)[C@H](CC(C)C)NC(=O)[C@@H]2CCCN2C(=O)CNC(=O)CNC(=O)[C@@H](NC(=O)CN)CSSC[C@@H](C(=O)N[C@@H](CCC(=O)O)C(=O)N[C@@H](CO)C(N)=O)NC(=O)[C@H](CC(C)C)NC(=O)[C@H](CCCCN)NC(=O)[C@H](CCCCN)NC(=O)[C@H]([C@@H](C)CC)NC(=O)[C@H]([C@@H](C)CC)NC(=O)[C@H](CCCCN)NC(=O)[C@H](CCCCN)NC(=O)[C@H](Cc2ccc(O)cc2)NC(=O)[C@H](CC(C)C)NC(=O)[C@@H]2CCCN2C(=O)[C@H](C)NC(=O)CNC(=O)CNC(=O)[C@H](Cn2cc(CCCC(=O)O[C@]3(CC)C(=O)OCc4c3cc3n(c4=O)Cc4cc5ccccc5nc4-3)nn2)NC(=O)CNC(=O)CNC(=O)[C@H](CO)NC(=O)[C@H](CCC(=O)O)NC(=O)[C@H](CC(C)C)NC(=O)[C@H](CC(C)C)NC(=O)[C@H](CCCCN)NC(=O)[C@H](CCCCN)NC(=O)[C@H]([C@@H](C)CC)NC1=O` [PDC 12], the CC50 (in “cells”; in series [1]) was above 2 µM each time. In the series with HT144 (melanoma) cells, the “cytotoxic activity against HT144” value was “no activity”. In addition, the “% recovered (soluble fractions)” value in series [2] (4 μM, 4 h, combined apical and basolateral fractions) is on record as 58%. Further, in series [2] (4 μM, 4 h, apical to basolateral, read-out: apparent permeability (Papp)), the Papp at 4 h, 4 μM was at least 2 ×10⁻⁶ cm/s.
Turning to `CC[C@H](C)[C@@H]1NC(=O)[C@H](CCCCN)NC(=O)[C@H](CCCCN)NC(=O)[C@H](Cc2ccc(O)cc2)NC(=O)[C@H](CC(C)C)NC(=O)[C@@H]2CCCN2C(=O)[C@H](C)NC(=O)CNC(=O)CNC(=O)[C@H](CO)NC(=O)CNC(=O)CNC(=O)[C@H](CO)NC(=O)[C@H](CCC(=O)O)NC(=O)[C@H](CC(C)C)NC(=O)[C@H](CC(C)C)NC(=O)[C@H](CCCCN)NC(=O)[C@H](CCCCN)NC(=O)[C@H]([C@@H](C)CC)NC(=O)[C@H]([C@@H](C)CC)NC(=O)[C@H](CCCCN)NC(=O)[C@H](CCCCN)NC(=O)[C@H](Cc2ccc(O)cc2)NC(=O)[C@H](CC(C)C)NC(=O)[C@@H]2CCCN2C(=O)[C@H](C)NC(=O)CNC(=O)CNC(=O)[C@H](C)NC(=O)CNC(=O)CNC(=O)[C@H](CO)NC(=O)[C@H](CCC(=O)O)NC(=O)[C@H](CC(C)C)NC(=O)[C@H](CC(C)C)NC(=O)[C@H](CCCCN)NC(=O)[C@H](CCCCN)NC(=O)[C@H]([C@@H](C)CC)NC1=O` [c[A]PDIP] (cyclo(AGGAPLYKKIIKKLLESGGSGGAPLYKKIIKKLLESGG)), the half-maximal cytotoxic concentration (CC50) in the series “cells” is 9.35 µM; in series [1] it was around 32 µM; in series [3] it was at least 32 µM. Further, in series [2], the Papp at 4 h, 4 μM was around 0.4 ×10⁻⁶ cm/s.
